Reference: patent US20050159345A1 (Boehringer Ingelheim International GmbH, priority 2002, published 2005)

Test system: HCV replicon 1b
Test: Cell-based HCV 1b RNA replicon assay
Conditions: Hepatitis C virus, 72 h; Huh-7-derived replicon cells, 3 day incubation, HCV RNA by RT-PCR
Protocol: These cells were used to establish a sensitive HCV RNA replication cell-based assay for testing candidate test compounds.
Huh7 cells that stably maintain a subgenomic HCV replicon were established as previously described (Lohman et al. 1999; WO 02/052015). The cells were seeded into a 96 well cell culture cluster at 1×10^4 cells per well in DMEM complemented with 10% FBS, PenStrep (Life Technologies) and […] Geneticin. Cells were incubated in a 5% CO2 incubator at 37° C. until addition of various concentrations of the test compound.
The test compound was prepared for use in the assay as follows. The test compound in 100% DMSO was added diluted in assay Medium for a final DMSO concentration of 0.5% and the solution was sonicated for 15 min and filtered through a […] Millipore Filter Unit. Serial dilutions of the test compounds were prepared using Assay Medium (containing 0.5% DMSO).
Cell culture medium was aspirated from the 96-well plate containing the cells and the appropriate dilution of test compound in assay medium was transferred to independent wells of the cell culture plate which was incubated at 37° with 5% CO2.
Following a 3 day-incubation period, the cells were washed with PBS and total cellular RNA was extracted with the RNeasy Mini Kit® and Qiashredder® from Qiagen. RNA from each well was eluted in 50 μL of H2O. RNA was quantified by optical density at 260 nm on the Cary 1E® UV-Visible spectrophotometer. The HCV RNA replicon copy number was evaluated by real-time RT-PCR with the Abi Prism® 7700 Sequence Detection System. The TAQMAN E® RT-PCR kit provides a system for the detection and analysis of RNA. Direct detection of the reverse transcription polymerase chain reaction (RT-PCR) product with no downstream processing was accomplished by monitoring the increase in fluorescence of a dye-labeled DNA probe. The nucleotide sequence of both primers and probe was located in the 5′ region of the HCV genome. The replicon copy number was then evaluated using a standard curve made with known amounts of replicon copy (supplemented with 50 ng of wild type Huh-7 RNA) assayed in the same reaction mix. The following thermal cycle parameters were used for the RT-PCR reaction on the ABI Prism® 7700 Sequence Detection System. Conditions were optimized for HCV detection. Quantification is based on the threshold cycle, where the amplification plot crosses a defined fluorescence threshold. Comparison of the threshold cycles provides a highly sensitive measure of relative template concentration in different samples. Monitoring during early cycles, when PCR fidelity is at its highest, provides precise data for accurate quantification. The relative template concentration can be converted to real numbers by using the standard curve of HCV with known number of copy.
The level of inhibition (% inhibition) of each well containing test compound was calculated with the following equation (CN═HCV Replicon copy number): [formula]
The calculated % inhibition values were then used to determine EC50, slope factor (n) and maximum inhibition (Imax) by the non-linear regression routine NLIN procedure of SAS using the following equation: [formula]

Compound	EC50 [nM]
COc1ccc2c(O[C@@H]3C[C@H]4C(=O)N[C@]5(C(=O)O)CC5/C=C\CCCCC[C@H](NC(=O)OC(C)(C)C)C(=O)N4C3)cc(-c3csc(NC(C)=O)n3)nc2c1 (stereo partly drawn) [III]	4.7
COc1ccc2c(O[C@@H]3C[C@H]4C(=O)N[C@]5(C(=O)O)CC5/C=C\CCCCC[C@H](NC(=O)OC(C)(C)C)C(=O)N4C3)cc(-c3ccccc3)nc2c1 (stereo partly drawn) [II]	27
COc1ccc2c(O[C@@H]3C[C@H]4C(=O)N[C@]5(C(=O)O)CC5/C=C\CCCCC[C@H](NC(=O)OC5CCCC5)C(=O)N4C3)cc(-c3csc(NC(C)C)n3)nc2c1 (stereo partly drawn) [IV]	1
